# Results published in PubChem BioAssay AID1963447 (Molecular Pharmacology Branch, DTP, NCI, 2024).
# Several values for one entry are separate records, joined by “and”; a condition that tells them apart may be missing. Equal entries are not always repeated.
# Test system: 885512-296-R-J2-PDC complex spheroid growth, % test/control
# Assay: Anticancer human tumor 885512-296-R-J2-PDC patient-derived breast carcinoma cell line growth inhibition [Asc]
# Conditions: for viability, T/C: stronger effect = lower value
# How it was run: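 Stromal components (HUVEC and hMSC) are co-assembled with the cancer cells into multicellular spheroids. Drugs are then added singly or paired, at concentrations falling by half-log increments from a clinically achievable maximum, capped at 10 microM without known Cmax.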
# [1] = curve of first compound, second compound 0.1 µM
# [2] = curve of first compound, second compound 0.316 µM
# [3] = curve of first compound, second compound 1 µM
# [4] = curve of first compound, second compound 3.16 µM
# [5] = curve of first compound, second compound 10 µM
# [6] = second compound 0.1 µM, first compound 0.00316 µM
# [7] = second compound 0.1 µM, first compound 0.01 µM
# [8] = second compound 0.1 µM, first compound 0.0316 µM
# [9] = second compound 0.1 µM, first compound 0.1 µM
# [10] = second compound 0.316 µM, first compound 0.00316 µM
# [11] = second compound 0.316 µM, first compound 0.01 µM
# [12] = second compound 0.316 µM, first compound 0.0316 µM
# [13] = second compound 0.316 µM, first compound 0.1 µM
# [14] = second compound 1 µM, first compound 0.00316 µM
# [15] = second compound 1 µM, first compound 0.01 µM
# [16] = second compound 1 µM, first compound 0.0316 µM
# [17] = second compound 1 µM, first compound 0.1 µM
# [18] = second compound 3.16 µM, first compound 0.00316 µM
# [19] = second compound 3.16 µM, first compound 0.01 µM
# [20] = second compound 3.16 µM, first compound 0.0316 µM
# [21] = second compound 3.16 µM, first compound 0.1 µM
# [22] = second compound 10 µM, first compound 0.00316 µM
# [23] = second compound 10 µM, first compound 0.01 µM
# [24] = second compound 10 µM, first compound 0.0316 µM
# [25] = second compound 10 µM, first compound 0.1 µM
# [26] = second compound 0.1 µM, first compound 0.316 µM
# [27] = second compound 0.1 µM, first compound 1 µM
# [28] = second compound 0.316 µM, first compound 0.316 µM
# [29] = second compound 0.316 µM, first compound 1 µM
# [30] = second compound 1 µM, first compound 0.316 µM
# [31] = second compound 1 µM, first compound 1 µM
# 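Also: spheroids exposed to compounds for seven days.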
# 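For viability, T/C in this document: 100% = DMSO vehicle control wells.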
smiles,measurement,setting,value
CCN1C(C(=O)NC23CCC(C(=O)O)(CC2)CC3)C(c2cccc(Cl)c2F)C2(C(=O)Nc3cc(Cl)ccc32)C12CCCCC2 (configuration not stated) + Cc1c(S(C)(=O)=O)c(-c2cc(F)cc(N3CCN(c4ccc(NS(=O)(=O)c5ccc(NC(CCN6CCC(C(=O)OCCCP(=O)(O)O)CC6)CSc6ccccc6)c(S(=O)(=O)C(F)(F)F)c5)cc4)CC3)c2)c(-c2ccc(Cl)cc2)n1C(C)C,IC50,[1],2460 nM
same,IC50,[2],1820 nM
same,IC50,[3],2370 nM
same,IC50,[4],> 3000 nM
same,IC50,[5],> 3000 nM
same,"viability, T/C","second compound 0.1 µM, first compound 0.00949 µM",90.8%
same,"viability, T/C","second compound 0.1 µM, first compound 0.03 µM",96.3%
same,"viability, T/C","second compound 0.1 µM, first compound 0.0949 µM",99.4%
same,"viability, T/C","second compound 0.1 µM, first compound 0.3 µM",72.8%
same,"viability, T/C","second compound 0.1 µM, first compound 0.949 µM",73.8%
same,"viability, T/C","second compound 0.1 µM, first compound 3 µM",45.1%
same,"viability, T/C","second compound 0.316 µM, first compound 0.00949 µM",86.7%
same,"viability, T/C","second compound 0.316 µM, first compound 0.03 µM",101%
same,"viability, T/C","second compound 0.316 µM, first compound 0.0949 µM",99.6%
same,"viability, T/C","second compound 0.316 µM, first compound 0.3 µM",80.8%
same,"viability, T/C","second compound 0.316 µM, first compound 0.949 µM",64.4%
same,"viability, T/C","second compound 0.316 µM, first compound 3 µM",39.8%
same,"viability, T/C","second compound 1 µM, first compound 0.00949 µM",103%
same,"viability, T/C","second compound 1 µM, first compound 0.03 µM",79.3%
same,"viability, T/C","second compound 1 µM, first compound 0.0949 µM",85%
same,"viability, T/C","second compound 1 µM, first compound 0.3 µM",71.9%
same,"viability, T/C","second compound 1 µM, first compound 0.949 µM",67.1%
same,"viability, T/C","second compound 1 µM, first compound 3 µM",42%
same,"viability, T/C","second compound 3.16 µM, first compound 0.00949 µM",109%
same,"viability, T/C","second compound 3.16 µM, first compound 0.03 µM",100%
same,"viability, T/C","second compound 3.16 µM, first compound 0.0949 µM",98.6%
same,"viability, T/C","second compound 3.16 µM, first compound 0.3 µM",95.4%
same,"viability, T/C","second compound 3.16 µM, first compound 0.949 µM",78%
same,"viability, T/C","second compound 3.16 µM, first compound 3 µM",52.4%
same,"viability, T/C","second compound 10 µM, first compound 0.00949 µM",129%
same,"viability, T/C","second compound 10 µM, first compound 0.03 µM",101%
same,"viability, T/C","second compound 10 µM, first compound 0.0949 µM",119%
same,"viability, T/C","second compound 10 µM, first compound 0.3 µM",124%
same,"viability, T/C","second compound 10 µM, first compound 0.949 µM",112%
same,"viability, T/C","second compound 10 µM, first compound 3 µM",79.6%
NC1CCC(NC2CC2c2ccccc2)CC1 (configuration not stated) + Cc1c(S(C)(=O)=O)c(-c2cc(F)cc(N3CCN(c4ccc(NS(=O)(=O)c5ccc(NC(CCN6CCC(C(=O)OCCCP(=O)(O)O)CC6)CSc6ccccc6)c(S(=O)(=O)C(F)(F)F)c5)cc4)CC3)c2)c(-c2ccc(Cl)cc2)n1C(C)C,IC50,[1],> 100 nM
same,IC50,[2],> 100 nM
same,IC50,[3],> 100 nM
same,IC50,[4],> 100 nM
same,IC50,[5],> 100 nM
same,"viability, T/C","second compound 0.1 µM, first compound 0.000316 µM",124%
same,"viability, T/C","second compound 0.1 µM, first compound 0.001 µM",127%
same,"viability, T/C",[6],122%
same,"viability, T/C",[7],123%
same,"viability, T/C",[8],123%
same,"viability, T/C",[9],113%
same,"viability, T/C","second compound 0.316 µM, first compound 0.000316 µM",121%
same,"viability, T/C","second compound 0.316 µM, first compound 0.001 µM",126%
same,"viability, T/C",[10],118%
same,"viability, T/C",[11],108%
same,"viability, T/C",[12],127%
same,"viability, T/C",[13],122%
same,"viability, T/C","second compound 1 µM, first compound 0.000316 µM",109%
same,"viability, T/C","second compound 1 µM, first compound 0.001 µM",115%
same,"viability, T/C",[14],122%
same,"viability, T/C",[15],116%
same,"viability, T/C",[16],123%
same,"viability, T/C",[17],121%
same,"viability, T/C","second compound 3.16 µM, first compound 0.000316 µM",112%
same,"viability, T/C","second compound 3.16 µM, first compound 0.001 µM",116%
same,"viability, T/C",[18],116%
same,"viability, T/C",[19],111%
same,"viability, T/C",[20],113%
same,"viability, T/C",[21],120%
same,"viability, T/C","second compound 10 µM, first compound 0.000316 µM",122%
same,"viability, T/C","second compound 10 µM, first compound 0.001 µM",104%
same,"viability, T/C",[22],99.5%
same,"viability, T/C",[23],121%
same,"viability, T/C",[24],111%
same,"viability, T/C",[25],118%
CNC(C)C(=O)NC1CN(S(=O)(=O)c2cccc(S(=O)(=O)N3CCC4CCC(C(=O)NC(c5ccccc5)c5ccccc5)N4C(=O)C(NC(=O)C(C)NC)C3)c2)CCC2CCC(C(=O)NC(c3ccccc3)c3ccccc3)N2C1=O (configuration not stated) + Cc1c(S(C)(=O)=O)c(-c2cc(F)cc(N3CCN(c4ccc(NS(=O)(=O)c5ccc(NC(CCN6CCC(C(=O)OCCCP(=O)(O)O)CC6)CSc6ccccc6)c(S(=O)(=O)C(F)(F)F)c5)cc4)CC3)c2)c(-c2ccc(Cl)cc2)n1C(C)C,IC50,[1],> 1000 nM
same,IC50,[2],> 1000 nM
same,IC50,[3],> 1000 nM
same,IC50,[4],> 1000 nM
same,IC50,[5],> 1000 nM
same,"viability, T/C",[6],78.5%
same,"viability, T/C",[7],89.6%
same,"viability, T/C",[8],89.2%
same,"viability, T/C",[9],101%
same,"viability, T/C",[26],116%
same,"viability, T/C",[27],88.8%
same,"viability, T/C",[10],80.1%
same,"viability, T/C",[11],92.6%
same,"viability, T/C",[12],107%
same,"viability, T/C",[13],93.5%
same,"viability, T/C",[28],106%
same,"viability, T/C",[29],109%
same,"viability, T/C",[14],90%
same,"viability, T/C",[15],100%
same,"viability, T/C",[16],112%
same,"viability, T/C",[17],102%
same,"viability, T/C",[30],107%
same,"viability, T/C",[31],109%
same,"viability, T/C",[18],94.7%
same,"viability, T/C",[19],92.7%
same,"viability, T/C",[20],99.2%
same,"viability, T/C",[21],102%
same,"viability, T/C","second compound 3.16 µM, first compound 0.316 µM",112%
same,"viability, T/C","second compound 3.16 µM, first compound 1 µM",95.2%
same,"viability, T/C",[22],112%
same,"viability, T/C",[23],103%
same,"viability, T/C",[24],91.5%
same,"viability, T/C",[25],98%
same,"viability, T/C","second compound 10 µM, first compound 0.316 µM",100%
same,"viability, T/C","second compound 10 µM, first compound 1 µM",105%
O=C(c1ccc(F)c(F)c1Nc1ccc(I)cc1F)N1CC(O)([C@@H]2CCCCN2)C1 + CNC(C)C(=O)NC1CN(S(=O)(=O)c2cccc(S(=O)(=O)N3CCC4CCC(C(=O)NC(c5ccccc5)c5ccccc5)N4C(=O)C(NC(=O)C(C)NC)C3)c2)CCC2CCC(C(=O)NC(c3ccccc3)c3ccccc3)N2C1=O,IC50,"curve of first compound, second compound 0.01 µM",94 nM
same,IC50,"curve of first compound, second compound 0.0316 µM",107 nM
same,IC50,[1],112 nM
same,IC50,[2],126 nM
same,IC50,[3],159 nM
same,"viability, T/C","second compound 0.01 µM, first compound 0.00316 µM",92.1%
same,"viability, T/C","second compound 0.01 µM, first compound 0.01 µM",80.5%
same,"viability, T/C","second compound 0.01 µM, first compound 0.0316 µM",59%
same,"viability, T/C","second compound 0.01 µM, first compound 0.1 µM",50.2%
same,"viability, T/C","second compound 0.01 µM, first compound 0.316 µM",37.5%
same,"viability, T/C","second compound 0.01 µM, first compound 1 µM",15.1%
same,"viability, T/C","second compound 0.0316 µM, first compound 0.00316 µM",98.3%
same,"viability, T/C","second compound 0.0316 µM, first compound 0.01 µM",84.3%
same,"viability, T/C","second compound 0.0316 µM, first compound 0.0316 µM",78%
same,"viability, T/C","second compound 0.0316 µM, first compound 0.1 µM",48%
same,"viability, T/C","second compound 0.0316 µM, first compound 0.316 µM",32%
same,"viability, T/C","second compound 0.0316 µM, first compound 1 µM",16.6%
same,"viability, T/C",[6],99.5%
same,"viability, T/C",[7],95.8%
same,"viability, T/C",[8],78.6%
same,"viability, T/C",[9],47.8%
same,"viability, T/C",[26],35.1%
same,"viability, T/C",[27],15.9%
same,"viability, T/C",[10],102%
same,"viability, T/C",[11],99.5%
same,"viability, T/C",[12],82.5%
same,"viability, T/C",[13],53.8%
same,"viability, T/C",[28],31.4%
same,"viability, T/C",[29],16.5%
same,"viability, T/C",[14],103%
same,"viability, T/C",[15],96.2%
same,"viability, T/C",[16],89.7%
same,"viability, T/C",[17],60.9%
same,"viability, T/C",[30],32.8%
same,"viability, T/C",[31],16.8%
C=CC(=O)N1CCN(c2nc(=O)n(-c3c(C)ccnc3C(C)C)c3nc(-c4c(O)cccc4F)c(F)cc23)C(C)C1 (configuration not stated),"viability, T/C",compound 0.0316 µM,90.3% and 85.9% and 94.9%
same,"viability, T/C",compound 0.1 µM,104% and 108% and 86.1%
same,"viability, T/C",compound 0.316 µM,108% and 104% and 90.2%
same,"viability, T/C",compound 1 µM,108% and 124% and 103%
same,"viability, T/C",compound 3.16 µM,77.3% and 101% and 95.2%
same,"viability, T/C",compound 10 µM,60.6% and 59.6% and 78.4%
same,IC50,curve of compound,> 10000 nM
